Measured values from PMC6610938 (BMC Microbiology, 2019).
Values after ≈ are worked out from the molar mass of the structure shown.

What was measured:
[1] = tested on: T1, Pseudomonas aeruginosa CLB 24228; experiment: microbe, parasite or virus in culture; design: CLSI broth microdilution MIC in cation-adjusted Mueller Hinton broth, standard inoculum; details: CLB24228, inoculum 5 x 10^5 CFU/mL, run 1
T1 construct: CLB 24228
Description: (§1) Each strain was tested at the standard inoculum of 5 × 10^5 colony forming units (CFU)/mL, as well as at inocula lower (5 × 10^4) and greater (5 × 10^6) than the standard inoculum. Antibacterial susceptibility testing for each P. aeruginosa isolate obtained from the four isolate sources listed above was performed using standard CLSI broth microdilution methodology using cation-adjusted Mueller Hinton broth.

[2] = tested on: T2, Pseudomonas aeruginosa ATCC 27853; experiment: microbe, parasite or virus in culture; design: CLSI broth microdilution MIC in cation-adjusted Mueller Hinton broth, standard inoculum; details: ATCC27853, inoculum 5 x 10^5 CFU/mL, run 1
T2 construct: ATCC 27853
Description: as §1

C[C@@H](O)[C@H]1C(=O)N2C(C(=O)O)=C(SCCNC=N)C[C@H]12 [IMI, imipenem]
MIC [1]: 32 mg/L (≈ 107 µM) | MIC [2]: 2 mg/L (≈ 6.68 µM)
